Like-named read-outs stand apart in the source and are kept apart here.
Tests used:
Format in all cases: in vivo, human
[1] = Clinical dose guiding study: plasma pharmacokinetics and urinary recovery; conditions: for Tmax: read-out: median Tmax and Tmax1
Text: (§1) This study was a randomized, double-blind (sponsor-open), parallel, placebo-controlled, multiple oral dose-escalating study of Compound 1 (in the form of its tris salt) in participants with type 2 diabetes mellitus (T2DM) on a background of metformin monotherapy.
(§2) A total of 98 participants received oral doses of Compound 1 (in the form of its tris salt) or matching placebo for 28 days, in this study. A total of approximately 12 participants were enrolled in each cohort with a randomization ration of 3:1 (9 active and 3 placebo), and 8 cohorts were enrolled in the study. Participants were admitted to the clinical research unit (CRU) on or before Day −2 and were discharged following completion of all assessments on Day 30, at principal investigator discretion. For individual participants, the total duration of participation from the Screening visit to the on-site Follow-up visit was approximately 15 weeks. A Follow-up visit and a Follow-up contact (which have been conducted by phone call) occurred 35-42 days and 56-63 days following the first dose of investigational product on Day 1, respectively. Participants who discontinued prior to completion of the study might have been replaced, at the discretion of the principal investigator and Sponsor. 92 participants completed the inpatient study.
(§3) Study Treatment: Compound 1 (in the form of its tris salt) was supplied as 1 mg, 10 mg, 50 mg and 100 mg immediate release (IR) tablets or 50 mg controlled release (CR) tablets (see Examples 1 and 2) for oral administration. Matching placebo tablets (2:1, Microcrystalline Cellulose: Lactose) were also provided.

[2] = system: participants with type 2 diabetes mellitus (T2DM); test: Clinical dose guiding study: fasting plasma glucose (FPG); conditions: Day 28, oral, on metformin
Text: as §1, §2
(§4) The planned titration schemes and dosing paradigms for all Cohorts are listed in Table 2-1. • QD: once daily • BID: twice daily
(§5) Diagnosis and Main Criteria for Inclusion: The population for this study was female participants of non-childbearing potential and/or male participants with T2DM, with an HbA1c […], who were taking metformin as their only anti-hyperglycemic treatment, and who were between 18 and 70 years with T2DM at the time of consent and Screening, with a body mass index (BMI) of 24.5 to 45.4 kg/m^2 and a total body weight >50 kg (110 lb). Metformin dose was required to be 500 mg per day and was required to be stable, for at least 2 months prior to the Screening visit and was administered in the CRU according to patient's baseline dosing regimen.
as §3
(§6) Measurements of fasting plasma glucose (FPG), 24-hour mean daily glucose (MDG), HbA1C, and body weight at baseline (at Day −1) and at Day 28 (shown as change from baselin) are shown in Tables 2-2 to 2-5.
(§7) Baseline was defined as the measurement (MDG, FPG, HbA1c, or body weight) on Day −1. Randomized treatment represented the target dose at Day 28.

[3] = system: participants with type 2 diabetes mellitus (T2DM); test: Clinical dose guiding study: 24-hour mean daily glucose (MDG); conditions: Day 28; for Mean Daily Glucose, Mean CFB: oral, on metformin
Text: as §1, §2, §4, §5, §3, §6, §7
Observed data presented. Mean Daily Glucose (MDG) was defined as AUC24/24.

[4] = Clinical dose guiding study: body weight; conditions: Day 28, oral, T2DM on metformin
Text: as §1, §2, §4, §5, §3, §6, §7

[5] = system: participants with type 2 diabetes mellitus (T2DM); test: Clinical dose guiding study: adverse events (TEAEs); conditions: for number of all causality TEAEs (events) / number of all causality TEAEs: 28 days
Text: as §1, §2, §3

[6] = system: participants with type 2 diabetes mellitus (T2DM); test: Clinical dose guiding study: HbA1c; conditions: Day 28, oral, on metformin
Text: as §1, §2, §4, §5, §3, §6, §7

[7] = system: participants with type 2 diabetes mellitus (T2DM); test: Clinical dose guiding study: ECG; conditions: planned treatment groups; self-limited
Text: as §1
as §2, with “inpatient study. […]” for “inpatient study.”

N#Cc1ccc(COc2cccc(C3CCN(Cc4nc5ccc(C(=O)O)cc5n4C[C@@H]4CCO4)CC3)n2)c(F)c1 [Compound 1, 2-[(4-{6-[(4-Cyano-2-fluorobenzyl)oxy]pyridin-2-yl}piperidin-1-yl)methyl]-1-[(2S)-oxetan-2-ylmethyl]-1H-benzimidazole-6-carboxylic acid]
Urinary recovery, dose recovered unchanged in urine ([1]; Day 28): < 0.1 % of the dose | Tmax ([1]; human, plasma, oral, Day 28, BID and QD IR treatments): 3 to 10 h | half-life ([1]; human, plasma, oral, across all treatments, read-out: Mean t % (terminal half life)): 4.7 to 8.1 h

N#Cc1ccc(COc2cccc(C3CCN(Cc4nc5ccc(C(=O)O)cc5n4C[C@@H]4CCO4)CC3)n2)c(F)c1 [1,3-dihydroxy-2-(hydroxymethyl)propan-2-aminium 2-[(4-{6-[(4-cyano-2-fluorobenzyl)oxy]pyridin-2-yl}piperidin-1-yl)methyl]-1-[(2S)-oxetan-2-ylmethyl]-1H-benzimidazole-6-carboxylate]
Fasting Plasma Glucose, Mean CFB ([2]; 10 mg BID, baseline 158.3): -34.3 mg/dL | Fasting Plasma Glucose, Mean CFB ([2]; 15 mg BID, baseline 198.4): -66.6 mg/dL | Fasting Plasma Glucose, Mean CFB ([2]; 50 mg BID, baseline 168.1): -34.5 mg/dL | Fasting Plasma Glucose, Mean CFB ([2]; 70 mg BID, baseline 186.3): -80.6 mg/dL | Fasting Plasma Glucose, Mean CFB ([2]; 120 mg BID Slow Titration, baseline 176.3): -75.1 mg/dL | Fasting Plasma Glucose, Mean CFB ([2]; 120 mg BID, baseline 196.9): -89.7 mg/dL | Fasting Plasma Glucose, Mean CFB ([2]; 120 mg QD, baseline 179.9): -48.3 mg/dL | Fasting Plasma Glucose, Mean CFB ([2]; 200 mg QD Controlled Release, baseline 195.3): -77.3 mg/dL | Mean Daily Glucose, Mean CFB ([3]; 10 mg BID, baseline 189.9): -53.3 mg/dL | Mean Daily Glucose, Mean CFB ([3]; 15 mg BID, baseline 225.4): -85.9 mg/dL | Mean Daily Glucose, Mean CFB ([3]; 50 mg BID, baseline 190.2): -48.7 mg/dL | Mean Daily Glucose, Mean CFB ([3]; 70 mg BID, baseline 218.5): -101.6 mg/dL | Mean Daily Glucose, Mean CFB ([3]; 120 mg BID Slow Titration, baseline 179.9): -68.6 mg/dL | Mean Daily Glucose, Mean CFB ([3]; 120 mg BID, baseline 219.0): -105.9 mg/dL | Mean Daily Glucose, Mean CFB ([3]; 120 mg QD, baseline 188.8): -70.9 mg/dL | Mean Daily Glucose, Mean CFB ([3]; 200 mg QD Controlled Release, baseline 225.2): -102.8 mg/dL | reductions in FPG, MDG, HbA1c, and body weight ([3]; increasing efficacy at higher doses of 70 mg to 120 mg twice daily): robust reductions | dose proportionality of exposure (dose normalized mean AUC24) ([1]; Day 1, BID and QD treatments, IR formulation): approximately dose proportional | dose proportionality of AUC24 and Cmax ([1]; Day 28, BID IR formulation cohorts): approximately dose-proportional | Tmax ([1]; human, plasma, Day 1, single oral dose, IR formulation, QD and BID regimens): 2 to 4 h | Body Weight, Mean CFB ([4]; 10 mg BID, baseline 99.90): -2.8 kg | Body Weight, Mean CFB ([4]; 15mg BID, baseline 93.60): -2.4 kg | Body Weight, Mean CFB ([4]; 50 mg BID, baseline 88.24): -2.4 kg | Body Weight, Mean CFB ([4]; 70 mg BID, baseline 86.08): -4.0 kg | Body Weight, Mean CFB ([4]; 120 mg BID Slow Titration, baseline 88.01): -5.5 kg | Body Weight, Mean CFB ([4]; 120 mg BID, baseline 101.34): -7.9 kg | Body Weight, Mean CFB ([4]; 120 mg QD, baseline 84.88): -4.3 kg | Body Weight, Mean CFB ([4]; 200 mg QD Controlled Release, baseline 92.29): -3.1 kg | incidence of all causalities TEAEs in Gastrointestinal Disorders category ([5]; 10 mg BID group (placebo 52.0%)): 33.3% | number of all causality TEAEs (events) ([5]; 10 mg BID group): 8 events | number of all causality TEAEs (events) ([5]; 15 mg BID group): 16 events | participants discontinued from the study due to treatment-related TEAEs ([5]; 15 mg BID group, moderate TEAE of headache): 1 participant | participants with dose reduction or temporary discontinuation due to TEAEs ([5]; 50 mg BID group): 4 participants | number of all causality TEAEs ([5]; 50 mg BID group): 45 | participants discontinued from the study due to treatment-related TEAEs ([5]; 50 mg BID group, moderate decreased appetite, nausea, vomiting and mild fatigue): 1 participant | number of all causality TEAEs ([5]; 70 mg BID group): 31 | participants with dose reduction or temporary discontinuation due to TEAEs ([5]; 120 mg BID Slow titration group): 2 participants | participants with dose reduction or temporary discontinuation due to TEAEs ([5]; 120 mg BID group): 1 participants | number of all causality TEAEs ([5]; 120 mg BID group): 43 | participants with mild hypoglycemia ([5]; 120 mg BID group, after missing a meal or snack, self-limited, treatment-related): 1 participant | severe TEAEs ([5]; 120 mg BID slow titration group, 1 treatment-related, 1 not): 2 | number of all causality TEAEs (events) ([5]; 120 mg BID slow titration group): 50 events | SAE ([5]; 120 mg BID slow titration group, not treatment-related): 1 | number of all causality TEAEs ([5]; 120 mg QD group): 35 | participants with dose reduction or temporary discontinuation due to TEAEs ([5]; 200 mg QD CR group): 1 participants | number of all causality TEAEs ([5]; 200 mg QD CR group): 47 | adverse trends in safety laboratory tests, vital signs or ECG parameters with increasing dose ([5]; ascending, multiple, oral doses): no clinically significant adverse trends | overall safety and tolerability ([5]; ascending, multiple, oral doses, adult participants with T2DM): generally safe and well-tolerated | HbA1c, Mean CFB ([6]; 10 mg BID, baseline 8.2): −0.8% | HbA1c, Mean CFB ([6]; 15 mg BID, baseline 8.6): −0.9% | HbA1c, Mean CFB ([6]; 50 mg BID, baseline 8.3): −1.2% | HbA1c, Mean CFB ([6]; 70 mg BID, baseline 8.3): −1.2% | HbA1c, Mean CFB ([6]; 120 mg BID Slow Titration, baseline 8.2): −1.2% | HbA1c, Mean CFB ([6]; 120 mg BID, baseline 8.5): −1.2% | HbA1c, Mean CFB ([6]; 120 mg QD, baseline 8.2): −1.0% | HbA1c, Mean CFB ([6]; 200 mg QD Controlled Release, baseline 8.6): −1.1% | participants with post-baseline ECG meeting criteria of QTcF interval >450 and ≤80 or change from baseline >30 and ≤60 [7]: 3 participants
